Seven compounds from patent publication US8445684B2, “Nicotinic acetylcholine receptor ligands and the uses thereof” (PsycoGenics Inc., priority 2008, dated 2013) can be followed below.

Values joined by “and” are separate entries in the source; they are usually repeats but may differ in a detail not shown here. Equal entries are not always repeated. Marks after values point to notes of the source that are not given here. A value given as a limit tells only on which side of the number the result lay.

In one test the target is T1, α3β2 nicotinic receptor (Rattus norvegicus, UniProt P04757+P12390).
T1 construct: expressed in transfected cells; host or cells: stably transfected cell lines (e.g., HEK293, COS, CHO, NIH3T3)
T1 sequence (P12390 25-500): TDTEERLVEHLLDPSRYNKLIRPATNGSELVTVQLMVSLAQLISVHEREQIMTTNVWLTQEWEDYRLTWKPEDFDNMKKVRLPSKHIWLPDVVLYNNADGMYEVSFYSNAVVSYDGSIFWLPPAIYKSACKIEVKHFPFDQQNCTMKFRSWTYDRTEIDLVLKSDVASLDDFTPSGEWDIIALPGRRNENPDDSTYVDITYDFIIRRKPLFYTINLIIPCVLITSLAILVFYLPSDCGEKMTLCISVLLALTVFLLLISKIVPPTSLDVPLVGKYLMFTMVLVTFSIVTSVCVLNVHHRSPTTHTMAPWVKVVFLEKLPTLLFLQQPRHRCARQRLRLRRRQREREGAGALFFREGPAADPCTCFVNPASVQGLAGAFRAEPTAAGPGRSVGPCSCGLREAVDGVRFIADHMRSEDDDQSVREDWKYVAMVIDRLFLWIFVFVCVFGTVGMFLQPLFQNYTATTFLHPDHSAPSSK
T1 sequence (P04757 26-499): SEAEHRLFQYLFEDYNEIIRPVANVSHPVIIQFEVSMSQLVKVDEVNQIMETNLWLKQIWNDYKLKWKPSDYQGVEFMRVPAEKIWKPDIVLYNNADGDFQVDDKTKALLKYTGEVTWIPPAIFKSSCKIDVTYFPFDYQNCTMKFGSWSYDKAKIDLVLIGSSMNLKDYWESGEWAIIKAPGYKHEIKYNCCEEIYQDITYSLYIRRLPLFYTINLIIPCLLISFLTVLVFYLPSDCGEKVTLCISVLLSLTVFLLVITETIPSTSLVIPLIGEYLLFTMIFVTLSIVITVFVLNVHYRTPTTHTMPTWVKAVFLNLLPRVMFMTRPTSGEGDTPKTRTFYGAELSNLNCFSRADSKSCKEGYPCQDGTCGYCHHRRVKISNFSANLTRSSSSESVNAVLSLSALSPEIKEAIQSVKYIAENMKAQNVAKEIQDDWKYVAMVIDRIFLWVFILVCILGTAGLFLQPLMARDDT
Nature of the test: biochemical. In kind it is binding. As for the experimental part:
(§1) All binding assays were performed according to procedures set forth in the University of North Carolina at Chapel Hill National Institute of Mental Health Psychoactive Drug Screening Program Assay Protocol Book (pp. 50-54; PI: Bryan L. Roth MD, PhD).
(§2) Nicotinic receptors: α2β2, α2β4, α3β2, α3β4, α4β2, α4β4, endogenous α4β2. Assay buffer: 50 mM Tris-HCl, pH 7.4. Membrane fraction source: Stably transfected cell lines (e.g., HEK293, COS, CHO, NIH3T3) (α2β2, α2β4, α3β2, α3β4, α4β2, α4β4) or rat forebrain (α4β2).
(§3) Aliquots (50 μl) of radioligand were dispensed into the wells of a 96-well plate containing 100 μl of assay buffer. Then, duplicate 50-μl aliquots of the test and reference compound dilutions were added.
(§4) Finally, crude membrane fractions of cells expressing recombinant target (prepared from 10-cm plates by harvesting PBS-rinsed monolayers, resuspending and lysing in chilled, hypotonic 50 mM Tris-HCl, pH 7.4, centrifuging at 20,000×g, decanting the supernatant and storing at −80° C.; typically, one 10-cm plate provides sufficient material for 24 wells) were resuspended in 3 ml of chilled assay buffer and homogenized by several passages through a 26 gauge needle, then 50 μl were dispensed into each well.
(§5) The 250-μl reactions were incubated at room temperature and shielded from light (to prevent photolysis of light-sensitive ligands) for 4 hours, then harvested by rapid filtration onto Whatman GF/B glass fiber filters pre-soaked with 0.5% polyethyleneimine using a 96-well Brandel harvester. Four rapid 500-μl washes were performed with chilled Standard Binding Buffer to reduce non-specific binding. Filters were placed in 6-ml scintillation tubes and allowed to dry overnight. The next day, 4 ml of EcoScint scintillation cocktail (National Diagnostics) were added to each tube. The tubes were capped, labeled, and counted by liquid scintillation counting.
(§6) Raw data (dpm) representing total radioligand binding (i.e., specific+non-specific binding) were plotted as a function of the logarithm of the molar concentration of the competitor (i.e., test or reference compound).

Test [1] addresses T2, α4β2* (endogenous α4β2, rat forebrain) (Rattus norvegicus, UniProt P09483+P12390).
T2 construct: from tissue; host or cells: rat forebrain
The experiment in a line: biochemical. In kind it is binding. As to the method:
as §1, §2, §3, §4, §5, §6

For another test, the target named is T3, α2β4 nicotinic receptor (Rattus norvegicus, UniProt P12389+P12392).
T3 construct: expressed in transfected cells; host or cells: stably transfected cell lines (e.g., HEK293, COS, CHO, NIH3T3)
T3 sequence (P12392 21-495): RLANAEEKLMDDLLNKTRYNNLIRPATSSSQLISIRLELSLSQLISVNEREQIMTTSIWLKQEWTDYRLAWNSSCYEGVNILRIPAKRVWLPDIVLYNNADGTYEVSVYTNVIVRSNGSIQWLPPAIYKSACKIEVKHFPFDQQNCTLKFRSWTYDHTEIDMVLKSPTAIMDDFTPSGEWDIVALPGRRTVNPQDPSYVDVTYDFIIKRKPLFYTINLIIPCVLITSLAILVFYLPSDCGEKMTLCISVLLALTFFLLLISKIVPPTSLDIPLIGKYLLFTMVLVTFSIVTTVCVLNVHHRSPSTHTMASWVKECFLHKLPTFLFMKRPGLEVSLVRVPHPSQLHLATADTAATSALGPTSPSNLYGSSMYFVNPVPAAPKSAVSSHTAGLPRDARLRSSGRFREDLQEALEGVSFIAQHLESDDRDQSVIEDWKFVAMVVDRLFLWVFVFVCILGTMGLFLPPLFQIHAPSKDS
T3 sequence (P12389 28-511): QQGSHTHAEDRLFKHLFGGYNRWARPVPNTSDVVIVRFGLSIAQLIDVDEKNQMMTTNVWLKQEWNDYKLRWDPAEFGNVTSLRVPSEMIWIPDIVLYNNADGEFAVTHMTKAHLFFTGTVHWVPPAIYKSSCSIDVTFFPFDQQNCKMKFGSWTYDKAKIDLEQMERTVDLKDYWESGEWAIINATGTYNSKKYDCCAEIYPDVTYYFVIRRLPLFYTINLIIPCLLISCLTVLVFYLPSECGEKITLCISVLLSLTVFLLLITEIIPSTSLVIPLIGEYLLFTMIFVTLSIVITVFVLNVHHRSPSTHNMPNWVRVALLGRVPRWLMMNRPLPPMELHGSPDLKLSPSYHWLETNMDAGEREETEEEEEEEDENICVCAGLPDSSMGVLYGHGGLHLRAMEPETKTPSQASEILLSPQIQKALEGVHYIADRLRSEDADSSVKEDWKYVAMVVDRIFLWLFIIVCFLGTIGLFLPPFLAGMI
The experiment in a line: biochemical. In kind it is binding. As to the method:
as §1, §2, §3, §4, §5, §6

In the next test the target is T4, α4β2 nicotinic receptor (Rattus norvegicus, UniProt P09483+P12390).
T4 construct: expressed in transfected cells; host or cells: stably transfected cell lines (e.g., HEK293, COS, CHO, NIH3T3)
T4 sequence (P09483 31-630): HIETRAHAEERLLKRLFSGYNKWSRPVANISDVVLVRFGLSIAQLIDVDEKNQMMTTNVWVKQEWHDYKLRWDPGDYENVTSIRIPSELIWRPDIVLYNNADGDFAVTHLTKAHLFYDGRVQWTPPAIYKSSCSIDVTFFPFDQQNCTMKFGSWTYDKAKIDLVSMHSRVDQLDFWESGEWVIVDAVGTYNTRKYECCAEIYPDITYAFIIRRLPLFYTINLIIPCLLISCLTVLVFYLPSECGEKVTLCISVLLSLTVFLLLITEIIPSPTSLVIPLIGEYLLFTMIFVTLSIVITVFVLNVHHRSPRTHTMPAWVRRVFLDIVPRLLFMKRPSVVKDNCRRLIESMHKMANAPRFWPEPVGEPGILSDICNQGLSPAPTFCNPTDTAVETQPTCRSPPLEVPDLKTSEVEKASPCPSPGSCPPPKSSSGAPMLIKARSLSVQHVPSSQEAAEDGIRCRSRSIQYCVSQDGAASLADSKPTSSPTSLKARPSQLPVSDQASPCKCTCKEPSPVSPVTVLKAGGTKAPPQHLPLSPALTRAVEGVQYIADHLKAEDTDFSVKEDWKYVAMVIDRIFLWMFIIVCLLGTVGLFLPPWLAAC
T4 sequence (P12390 25-500): as the sequence (P12390 25-500) above
Nature of the test: biochemical. In kind it is binding. As to the method: as §1, §2, §3, §4, §5, §6

Another test concerns the target T5, α2β2 nicotinic receptor (Rattus norvegicus, UniProt P12389+P12390).
T5 construct: expressed in transfected cells; host or cells: stably transfected cell lines (e.g., HEK293, COS, CHO, NIH3T3)
The experiment in a line: biochemical. The class given is binding. As for the experimental part:
as §1, §2, §3, §4, §5, §6

For a further test, the target named is T6, α4β4 nicotinic receptor (Rattus norvegicus, UniProt P09483+P12392).
T6 construct: expressed in transfected cells; host or cells: stably transfected cell lines (e.g., HEK293, COS, CHO, NIH3T3)
T6 sequence (P09483 31-630): as the sequence (P09483 31-630) above
T6 sequence (P12392 21-495): as the sequence (P12392 21-495) above
The experiment in a line: biochemical. The class given is binding. As to the method:
as §1, §2, §3, §4, §5, §6

A further test concerns the target T7, α3β4 nicotinic receptor (Rattus norvegicus, UniProt P04757+P12392).
T7 construct: expressed in transfected cells; host or cells: stably transfected cell lines (e.g., HEK293, COS, CHO, NIH3T3)
The experiment in a line: biochemical. The class given is binding. As for the experimental part:
as §1, §2, §3, §4, §5, §6

In the next test the test system is male Balb/cJ mice. Nature of the test: Forced swim test in mice. In kind it is in vivo. As for the experimental part: Subjects. The subjects were male Balb/cJ mice obtained from Jackson Laboratory, Bar Harbor, Me. Mice were housed 4 per cage under controlled conditions of temperature, relative humidity and light-dark cycle with free access to food and water.
Procedures. […] Mice were individually placed into clear glass cylinders (i.e., 15 cm tall×10 cm wide, 1 L beakers) containing 23±1° C. water 12 cm deep (approximately 800 mL). The time the animal spent immobile was recorded over a 6 min trial. Immobility was described as the postural position of floating in the water.
Drugs. […] The mice were injected intraperitoneally (i.p.) 30 minutes before the start of the test. In another set of experiments, the test compounds were administered orally (p.o.) 30 minutes before the start of the test.
Statistics. The length of time spent floating was analyzed by Analysis of Variance (ANOVA) with dose of drug as the between-subject factor and time spent immobile across the 6 min test as the dependent variable. Post-hoc comparisons between the treatment groups and control group were made using Fisher's PLSD test. A significance level of 5% was used throughout.

T2 sequence (P09483 31-630): as the sequence (P09483 31-630) above
T2 sequence (P12390 25-500): as the sequence (P12390 25-500) above
T5 sequence (P12390 25-500): as above
T5 sequence (P12389 28-511): as the sequence (P12389 28-511) above
T7 sequence (P04757 26-499): as the sequence (P04757 26-499) above
T7 sequence (P12392 21-495): as the sequence (P12392 21-495) above

Broadly, the Ki is the equilibrium dissociation constant of an inhibitor or competing ligand from its target. The low end stands for tighter binding, the high end for weaker binding. Turning to `OCCCC[C@H]1C[C@@H]1c1cncc(OC[C@@H]2CCN2)c1`, the Ki is 6.5 nM on α3β2 nicotinic receptor; 1.4 nM in test [1]; 120 nM at α2β4 nicotinic receptor; 0.5 nM on α4β2 nicotinic receptor; 0.6 nM at α2β2 nicotinic receptor; 240 nM on α4β4 nicotinic receptor.
As to `FCC[C@H]1C[C@@H]1c1cncc(OC[C@@H]2CCN2)c1`, the Ki at α3β2 nicotinic receptor is 34 nM; in test [1] it was 11 nM; at α2β4 nicotinic receptor, 660 nM; at α3β4 nicotinic receptor, > 10000 nM; at α4β2 nicotinic receptor it was 1 nM; on α2β2 nicotinic receptor it was 6.4 nM. The compound also had a Ki at α4β4 nicotinic receptor of 1300 nM.
For the compound `OCCCCC#Cc1cncc(OC[C@@H]2CCN2)c1` [AMOP-H-OH, reference compound], the “effect in the forced swim test as indicated by a reduction in immobility time” value (“effect … by a reduction in immobility time” for short) with male Balb/cJ mice (mouse, in vivo, ip) is listed as “positive effects”.
`OCC[C@H]1C[C@@H]1c1cncc(OC[C@@H]2CCN2)c1` [Example 2, 2-[(1R,2S)-2-[5-[(2(S)-Azetidinyl)methoxy]-3-pyridyl]cyclopropyl]ethanol]: the “effect … by a reduction in immobility time” value in the test with male Balb/cJ mice (mouse, in vivo, ip) is listed as “positive effects”.
Consider `OCCCc1cccc(-c2cncc(OC[C@@H]3CCN3)c2)c1` [Example 15c, 3-[3-[5-[(2(S)-Azetidinyl)methoxy]-3-pyridyl]phenyl]-1-propanol], for which the “reduction in immobility time compared to vehicle” value in the test on male Balb/cJ mice (mouse, in vivo) is 24.5 s. The “effect … by a reduction in immobility time” value in the test with male Balb/cJ mice (mouse, in vivo, ip) is recorded as “positive effects”. The “Average Immobility Time” value with male Balb/cJ mice (mouse, in vivo, ip, 5 mg/kg) is 110.6 s; with male Balb/cJ mice (mouse, in vivo, ip, 10 mg/kg), 105.1** seconds and 85.3** seconds; with male Balb/cJ mice (mouse, in vivo, ip, 20 mg/kg), 49.7** seconds.
With `CN[C@H]1CC[C@@H](c2ccc(Cl)c(Cl)c2)c2ccccc21` [Sertraline, sertraline, reference compound], in the test on male Balb/cJ mice (Table 2, 20 mg/kg i.p., 30 min before test, 6 min trial, vehicle 126.3, ** = significantly different from vehicle), the “Average Immobility Time” value was 11.9** seconds.
With `OCC[C@H]1C[C@@H]1c1cncc(OC[C@@H]2CCN2)c1` [drawing 715], the Ki on α3β2 nicotinic receptor stood at 5.1 nM; in test [1], 1.2 nM; on α2β4 nicotinic receptor it was 62 nM; on α3β4 nicotinic receptor, 640 nM; at α4β2 nicotinic receptor, 0.3 nM; at α2β2 nicotinic receptor it was 0.9 nM.
